Values after ≈ are worked out from the molar mass of the structure shown.

The term MIC denotes the smallest concentration in the dilution series that meets the test's criterion for growth inhibition. One may read the Km as the substrate concentration at which the rate is half of its maximum. Usually kcat/Km stands for the turnover number divided by the Michaelis constant. The IC50 is the concentration that inhibits the measured activity by half.

Assay [1] relates to Escherichia coli. Nature of the assay: Antibacterial activity against Escherichia coli DH10B expressing recombinant beta lactamase LAP1. Type of assay: functional.
In assay [2] the test system is Enterobacter cloacae. Nature of the assay: Antibacterial activity against Enterobacter cloacae S3 isolate by agar dilution technique. Type of assay: functional.
For assay [3], the system named is Escherichia coli. Nature of the assay: Antibacterial activity against Escherichia coli DH10B. Type of assay: functional.
Assay [4] has as its system Enterobacter cloacae.
Description: Activity of Enterobacter cloacae S3 isolate beta lactamase LAP1 expressed in Escherichia coli DH10B
The subject of assay [5] is Enterobacter cloacae. This is another data set of the same source.
Description: Ratio of kcat to Km of Enterobacter cloacae S3 isolate beta lactamase LAP1 expressed in Escherichia coli DH10B
Assay [6] in a line: Inhibition of Enterobacter cloacae S3 isolate beta lactamase LAP1 expressed in Escherichia coli DH10B.

In the case of `CO/N=C(\C(=O)N[C@@H]1C(=O)N2C(C(=O)[O-])=C(C[N+]3(C)CCCC3)CS[C@H]12)c1csc(N)n1`, the MIC with Escherichia coli [1] was 0.12 µg/mL.

As to `CC1(C)S[C@@H]2[C@H](NC(=O)[C@H](N)c3ccc(O)cc3)C(=O)N2[C@H]1C(=O)O` [AMOXICILLIN], the MIC is more than 512 µg/mL against Enterobacter cloacae [2], 512 µg/mL in the assay with Escherichia coli [1] and 4 µg/mL (≈ 10.9 µM) against Escherichia coli [3]. Moreover, the Km with Enterobacter cloacae [4] came out at 180 µM. In addition, in the assay on Enterobacter cloacae [5], the kcat/Km worked out at 3.3e+06 M⁻¹ s⁻¹.

On to `CO/N=C(\C(=O)N[C@@H]1C(=O)N2C(C(=O)O)=C(COC(C)=O)CS[C@H]12)c1csc(N)n1` [CEFOTAXIME], for which the MIC in the assay with Enterobacter cloacae [2] turned out to be 0.25 µg/mL (≈ 0.549 µM); in the assay with Escherichia coli [1] it was 0.12 µg/mL; in the assay on Escherichia coli [3], 0.12 µg/mL (≈ 0.263 µM).

Regarding `CO[C@@]1(NC(=O)Cc2cccs2)C(=O)N2C(C(=O)O)=C(COC(N)=O)CS[C@@H]21` [CEFOXITIN], the MIC worked out at 256 µg/mL (≈ 599 µM) in the assay on Enterobacter cloacae [2], 4 µg/mL in the assay with Escherichia coli [1] and 4 µg/mL (≈ 9.36 µM) in the assay with Escherichia coli [3].

With `CC(C)(O/N=C(\C(=O)N[C@@H]1C(=O)N2C(C(=O)[O-])=C(C[n+]3ccccc3)CS[C@H]12)c1csc(N)n1)C(=O)O` [CEFTAZIDIME], the MIC in the assay on Enterobacter cloacae [2] was 0.5 µg/mL (≈ 0.915 µM); with Escherichia coli [1] it was 0.12 µg/mL; against Escherichia coli [3], 0.06 µg/mL (≈ 0.11 µM).

In the case of `CO/N=C(\C(=O)N[C@@H]1C(=O)N2C(C(=O)O)=C(COC(N)=O)CS[C@H]12)c1ccco1` [CEFUROXIME], the MIC is 256 µg/mL (≈ 603 µM) against Enterobacter cloacae [2], 8 µg/mL in the assay on Escherichia coli [1] and 2 µg/mL (≈ 4.71 µM) in the assay on Escherichia coli [3]. Besides, in the assay on Enterobacter cloacae [4], the Km was more than 2000 µM. Also, the kcat/Km in the assay on Enterobacter cloacae [5] is more than 50000 M⁻¹ s⁻¹.

Take `CC(=O)OCC1=C(C(=O)O)N2C(=O)[C@@H](NC(=O)Cc3cccs3)[C@H]2SC1` [CEPHALOTHIN]: the minimum inhibitory concentration (MIC) in the assay with Enterobacter cloacae [2] is more than 512 µg/mL; with Escherichia coli [1], 16 µg/mL; in the assay on Escherichia coli [3], 4 µg/mL (≈ 10.1 µM). For the same molecule, the Km in the assay on Enterobacter cloacae [4] is 400 µM. The kcat/Km in the assay with Enterobacter cloacae [5] amounted to 90000 M⁻¹ s⁻¹.

The molecule `C[C@@H](O)[C@H]1C(=O)N2C(C(=O)O)=C(SCCNC=N)C[C@H]12` [IMIPENEM ANHYDROUS] showed a minimal inhibitory concentration (MIC) in the assay on Enterobacter cloacae [2] of 0.12 µg/mL (≈ 0.401 µM).

In assay [6], `CC1(C)S[C@@H]2[C@H](NC(=O)Cc3ccccc3)C(=O)N2[C@H]1C(=O)O` [PENICILLIN G] came in with an IC50 of 80 nM. For the same molecule, in the assay with Enterobacter cloacae [4], the Km turned out to be 20 µM. The kcat/Km with Enterobacter cloacae [5] turned out to be 1e+07 M⁻¹ s⁻¹.

On to `CCN1CCN(C(=O)N[C@@H](C(=O)N[C@@H]2C(=O)N3[C@@H]2SC(C)(C)[C@@H]3C(=O)O)c2ccccc2)C(=O)C1=O` [PIPERACILLIN], for which the results for the minimal inhibitory concentration (MIC) against Enterobacter cloacae [2], with Escherichia coli [1] and with Escherichia coli [3] were 16 µg/mL (≈ 30.9 µM), 4 µg/mL and 1 µg/mL (≈ 1.93 µM), respectively. Further, the Km in the assay with Enterobacter cloacae [4] was 50 µM. The kcat/Km with Enterobacter cloacae [5] was determined as 1.5e+06 M⁻¹ s⁻¹.

As for `CC1(C)S[C@@H]2[C@H](NC(=O)[C@H](C(=O)O)c3ccsc3)C(=O)N2[C@H]1C(=O)O` [TICARCILLIN], the values for the minimal inhibitory concentration (MIC) with Enterobacter cloacae [2], in the assay with Escherichia coli [1] and with Escherichia coli [3] were more than 512 µg/mL, 512 µg/mL and 4 µg/mL (≈ 10.4 µM), respectively.
